Assay results from article PMC7594025, “Synthesis, Docking, 3-D-Qsar, and Biological Assays of Novel Indole Derivatives Targeting Serotonin Transporter, Dopamine D2 Receptor, and Mao-A Enzyme: In the Pursuit for Potential Multitarget Directed Ligands” (Molecules, 2020).
Read-outs that look alike come from different tables or passages of the source.

Key:
[1] = molecular target: T1, SERT (Homo sapiens, UniProt P31645); assay: SERT competitive binding assay, [3H]-paroxetine, membranes from HEK-293 clonal cell line overexpressing SERT
T1 construct: purchased Perkin-Elmer (Boston, MA, USA) RBHSTM400UA; host or cells: HEK-293 clonal cell line
T1 sequence (P31645 whole entry): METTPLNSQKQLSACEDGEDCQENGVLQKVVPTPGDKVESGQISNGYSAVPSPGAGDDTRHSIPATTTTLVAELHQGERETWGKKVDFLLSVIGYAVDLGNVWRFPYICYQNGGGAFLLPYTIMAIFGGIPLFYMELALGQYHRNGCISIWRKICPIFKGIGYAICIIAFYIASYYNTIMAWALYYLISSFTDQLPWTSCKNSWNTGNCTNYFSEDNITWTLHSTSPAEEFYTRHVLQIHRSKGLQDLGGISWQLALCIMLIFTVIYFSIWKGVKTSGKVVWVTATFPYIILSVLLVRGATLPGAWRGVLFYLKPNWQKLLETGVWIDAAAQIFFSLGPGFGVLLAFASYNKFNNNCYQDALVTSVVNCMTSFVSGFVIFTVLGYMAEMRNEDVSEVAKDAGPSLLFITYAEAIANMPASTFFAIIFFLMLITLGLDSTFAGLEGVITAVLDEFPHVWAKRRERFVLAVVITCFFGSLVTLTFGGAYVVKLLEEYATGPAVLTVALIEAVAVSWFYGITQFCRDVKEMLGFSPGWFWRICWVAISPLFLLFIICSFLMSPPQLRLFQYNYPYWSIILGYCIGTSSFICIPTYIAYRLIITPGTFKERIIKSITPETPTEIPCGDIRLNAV
Description: To determine the binding of all compounds at SERT, competitive binding assays were performed according to previously reported procedures with some modifications. […] Control curve was performed with fluoxetine in the same experimental conditions. Non-specific binding was determined with 10 µM fluoxetine.
The IC50 and Ki values correspond to the results of three independent experiments, each in triplicate. All data are expressed as the mean ± SEM.

[2] = molecular target: T2, D2 receptor (Homo sapiens, UniProt P14416); assay: D2 receptor competitive binding assay, [3H]-methylspiperone, membranes from CHO-K1 clonal cell line overexpressing D2 receptor; conditions: 0.5 nM [3H]-methylspiperone, 2 h at 27 °C; mean ± SEM of three experiments, each in triplicate
T2 construct: purchased Perkin-Elmer (Boston, MA, USA) RBHD2CM400UA; host or cells: CHO-K1 clonal cell line
T2 sequence (P14416 whole entry): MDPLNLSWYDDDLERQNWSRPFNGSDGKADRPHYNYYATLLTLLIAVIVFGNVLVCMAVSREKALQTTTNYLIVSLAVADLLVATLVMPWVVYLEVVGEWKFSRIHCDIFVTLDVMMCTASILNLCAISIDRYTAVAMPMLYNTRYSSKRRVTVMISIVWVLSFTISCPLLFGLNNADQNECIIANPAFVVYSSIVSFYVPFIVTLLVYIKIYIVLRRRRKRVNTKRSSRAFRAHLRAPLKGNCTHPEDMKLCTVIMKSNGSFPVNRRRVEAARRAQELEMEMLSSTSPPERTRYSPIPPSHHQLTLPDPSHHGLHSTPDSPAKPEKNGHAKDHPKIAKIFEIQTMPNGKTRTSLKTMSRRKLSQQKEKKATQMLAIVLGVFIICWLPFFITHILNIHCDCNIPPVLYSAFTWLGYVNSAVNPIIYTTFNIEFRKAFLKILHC
Description: To determine the binding of all compounds at D2 receptor, competitive binding assays were performed according to provider indications with some modifications. […] Radioactivity was counted as described before.

[3] = molecular target: T3, rat MAO-A (Rattus norvegicus, UniProt P21396); assay: MAO-A inhibition, crude rat brain mitochondrial suspension, serotonin substrate, HPLC-ED; type: biochemical; conditions: 100 µM compound; serotonin 100 µM as substrate
T3 construct: using a crude rat brain mitochondrial suspension as a source of enzyme; from tissue; host or cells: rat brain (crude mitochondrial suspension)
T3 sequence (P21396 1-526): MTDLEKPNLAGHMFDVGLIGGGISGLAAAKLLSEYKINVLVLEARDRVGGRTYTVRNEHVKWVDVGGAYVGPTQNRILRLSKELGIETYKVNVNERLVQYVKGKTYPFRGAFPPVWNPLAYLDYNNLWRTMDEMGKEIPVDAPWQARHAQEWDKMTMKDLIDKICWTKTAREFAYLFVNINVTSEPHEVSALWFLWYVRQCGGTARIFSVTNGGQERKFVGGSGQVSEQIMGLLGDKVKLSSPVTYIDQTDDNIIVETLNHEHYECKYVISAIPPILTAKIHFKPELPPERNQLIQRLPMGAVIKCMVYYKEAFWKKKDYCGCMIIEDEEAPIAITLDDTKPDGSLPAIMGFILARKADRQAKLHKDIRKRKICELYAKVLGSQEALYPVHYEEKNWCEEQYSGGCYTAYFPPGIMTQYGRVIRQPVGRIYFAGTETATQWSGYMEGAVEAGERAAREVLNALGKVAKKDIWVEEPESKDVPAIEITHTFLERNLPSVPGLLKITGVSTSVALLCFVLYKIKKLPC
Description: The effects of the compounds on rat MAO-A activity were studied following a previously reported methodology, using a crude rat brain mitochondrial suspension as a source of enzyme. Serotonin (100 µM) was used as the selective substrate for MAO-A. This compound and its metabolite were detected by HPLC with electrochemical detection. As an exploratory evaluation, the percentage of MAO-A inhibition in the presence of 100 µM of the different compounds was determined, with the idea of evaluating in detail those compounds showing an inhibitory activity in the range of 70–100%.

[4] = 2 nM [3H]-paroxetine, 1 h at 27 °C, mean ± SEM of three experiments, each in triplicate, read-out: Ki SERT

Row | Structure (SMILES) | Ki [1, 4] [nM] | Ki [2] [nM] | inhibition at 100 µM [3] [%] | melting point [°C] | Ki ([1]; SERT, experimental values used for CoMFA/CoMSIA (Table S3), read-out: Exp. pKi (converted)) [nM]
1 | O=C(CN1CCN(CCCc2c[nH]c3ccccc23)CC1)N1CCOc2ccccc21 [Compound 7a, 1-(2,3-Dihydro-benzo[b][1,4]oxazin-4-yl)-2-{4-[3-(1H-3-indolyl)-propyl]-1-piperazinyl} ethanamide] | 307 ± 30.5 | 4840 ± 68 | 27 | 124.3 to 125.8 | 
2 | O=C(CN1CCN(CCCc2c[nH]c3ccc(Br)cc23)CC1)Nc1cc(C(=O)NCCN2CCOCC2)ccc1F [Compound 13f, 4-Fluoro-3-(2-{4-[3-(5-bromo-1H-3-indolyl)-propyl]-1-piperazinyl}-acetylamino)-N-(2-morpholin-4-yl-ethyl) Benzamide] | 58.8 ± 1.14 | 1830 ± 33 | 39 | 85.2 to 86.8 | 
3 | O=C(CN1CCN(CCCc2c[nH]c3ccc(Br)cc23)CC1)Nc1ccc(F)cc1C(=O)NCCN1CCOCC1 [Compound 13h, 5-Fluoro-2-(2-{4-[3-(5-bromo-1H-3-indolyl)-propyl]-1-piperazinyl}-acetylamino)-N-(2-morpholin-4-yl-ethyl) Benzamide] | 200 ± 14.5 | 4700 ± 168 | 9.4 | 73.8 to 74.7 | 
4 | O=C(CN1CCN(CCCc2c[nH]c3ccccc23)CC1)Nc1ccc(F)cc1C(=O)NCCN1CCOCC1 [Compound 13l, 5-Fluoro-2-(2-{4-[3-(1H-3-indolyl)-propyl]-1-piperazinyl}-acetylamino)-N-(2-morpholin-4-yl-ethyl) Benzamide] | 52.2 ± 3.24 | 2000 ± 34 | 34 | 68.1 to 69.6 | 
5 | O=C(CN1CCN(CCCc2c[nH]c3ccc(F)cc23)CC1)N1CCOc2ccc(Br)cc21 [Compound 7k, 1-(6-Bromo-2,3-dihydro-benzo[b][1,4]oxazin-4-yl)-2-{4-[3-(5-fluoro-1H-3-indolyl)-propyl]-1-piperazinyl} ethanamide] | 5.63 ± 0.82 | 1040 ± 232 | 20 | 102.8 to 103.9 | 5.62
